Data reported in patent US20230123497A1, “NOVEL ANTIBACTERIAL HYDROGELS” (NewSouth Innovations Pty Limited, priority 2020, published 2023).
Values joined by “and” are separate entries in the source; they are usually repeats but may differ in a detail not shown here. Equal values may be shown once.

Legend:
[1] = Frequency sweep test (FST), rheometer; format: physicochemical; settings: for G′ (modulus storage) / G″ (modulus loss): FST fixed strain 0.1%
Procedure: The mechanical properties of anthranilamide-based cationic hydrogels were assessed using an Anton Paar MCR 302 rheometer with a 25 mm stainless parallel plate configuration.
(§1) Initially, 1 mL of hydrogels were prepared from short peptides 11-13 and 15-19 in glass vials at concentration of 1% w/v. These vials were warmed using a heat gun to transform the hydrogel to the solution phase. Subsequently, 560 μL of the resulting solutions were cast onto the rheometer plate. The other plate was lowered to the measuring position ([…]) and the hydrogel was allowed to stand for 3 hours for the gel to form. The FST was conducted at fixed strain of 0.1% and frequency ranging from 10 Hz to 0.01 Hz. Meanwhile, the strain sweep test (SST) was performed at a frequency of 1 Hz using 0.1% strain to 100% strain. The rheology data were shown as the average of three repeats for each data point.
(§2) The mechanical properties of hydrogels 4 (formed via addition of NaCl or GdL) before and after blue light irradiation were also assessed using an Anton Paar MCR 302 rheometer with a 25 mm stainless parallel plate configuration. Prior to the hydrogel formation, 560 μL of solution phase of short peptide 4 at 1% w/v were transferred onto a rheometer plate. Meanwhile, hydrogel 4, which had been exposed to blue light, was warmed using a heat gun, to provide its solution phase. Subsequently, 560 μL of this solution phase was cast onto the rheometer plate. The other plate was lowered to the measuring position ([…]) and the hydrogel was allowed to stand for 3 hours for the gel to form. The frequency sweep test (FST) was conducted at fixed strain of 0.1% and frequency ranging from 10 Hz to 0.01 Hz. Meanwhile, the SST was performed at a frequency of 1 Hz using 0.1% strain to 100% strain. In addition, the temperature sweep test was conducted to obtain transition glass (Tg) using fixed frequency of 1 Hz and fixed strain of 0.1% with temperature ramping from 25° C. to 90° C. The rheology data were shown as the average of three repeats for each data point.
In the FST, samples were measured over a range of oscillation frequencies (0.1-10 rad/s) at fixed strain, temperature, and oscillation amplitude. Higher frequencies simulate fast motion on a short time-scale, while low frequencies simulate slow motion on a long time-scale, or rest. All of the hydrogels made from the anthranilamide-based short cationic peptides, which passed the vial inversion test, were subjected to the FST using a rheometer to precisely assess their mechanical properties.

S. aureus 38 = assay: Antibacterial activity of cationic hydrogels, viable count method; format: cell-based, Staphylococcus aureus; settings: hydrogel at 1% w/v in contact with S. aureus, compared to control
Procedure: The antibacterial activity of the anthranilamide-based cationic hydrogels 11-13 and 15-19 was investigated in vitro against S. aureus. The antibacterial activity of anthranilamide-based cationic hydrogel 11 was also investigated in vitro against E. coli.
First, a single colony of S. aureus 38 or E. coli K12 was grown in Luria-Bertani (LB) broth medium at 37° C. overnight. The resulting bacteria were harvested, via centrifugation, to obtain a bacteria pellet which was re-suspended in the same volume of LB medium, twice. The optical density (OD) value of the resulting culture was adjusted to 0.1 at 600 nm in LB (10^8 cfu·mL^−1). This bacteria solution was then further adjusted to 3×10^4 cfu mL^−1. (CFU or cfu=colony-forming unit). Bacteria solutions (1 mL), which contain either 10^8 CFUs/mL or 3×10^4 CFUs/mL, were gently added to hydrogel 11 at 1% w/v with total volume of 1 mL. Anthranilamide-based cationic hydrogels 11-13 and 15-19 (1 mL) were prepared at 1% w/v in glass vials as described above. On top of these pre-formed hydrogels, 1 mL of bacteria solution was carefully cast. […] As a negative control, a bacterial solution in the absence of hydrogel was used. After being incubated at 37° C. for 18 hours, 100 μL of bacteria solution in each vial was taken and subjected to serial dilution using phosphate buffer solution (PBS). 20 μL of each dilution were carefully transferred into nutrient agar plates and incubated for another 18 hours. The following day, bacterial growth inhibition was quantified using the viable count method. The experiment was performed twice in triplicate and multiple sample comparison was performed using one-way ANOVA at p<0.05.

[2] = Hydrogel formation, vial inversion test (critical gel concentration); format: physicochemical; design: key: OG: opaque gel; P: precipitate; settings: cationic peptides 10-14; vial inversion test
From the text: (§3) The simplest method to determine whether a suitable hydrogel has formed is to use the vial inversion test. Through visual inspection, a material can be categorised as a solution, viscous solution, partial gel, or solid-like gel. A stable hydrogel needs to be able to hold its weight and/or maintain its shape during this assessment.
(§4) The critical gel concentration (CGC) is defined as the minimum mass of a short peptide required to provide a self-supporting hydrogel per unit volume in the vial inversion test (measured as % w/v).
(§5) Pre-weighed samples of short peptide 4 were prepared in aluminium-covered glass vials and Milli-Q water and 2 equivalents of NaOH (1.0 M) were added to make up concentrations of 1% w/v. The resulting suspensions were vortexed for 5 minutes to provide clear yellow solutions with pH 11.
(§6) To create a high ionic strength environment, 1 equivalent of NaCl was added and the vial was left to stand without disturbance for 3 hours at room temperature. Meanwhile, as an attempt to form a hydrogel by lowering the pH, 2 equivalents of GdL were added to a high pH solution of 4 followed by gentle mixing. These vials were inverted and allowed to stand overnight to confirm the hydrogel formation.
(§7) The formation of hydrogel 4 via the solvent switch method was conducted by dissolving short peptide 4, in an aluminium covered glass vial, with either 50% methanol, ethanol, or dimethyl sulfoxide (DMSO). Respective amounts of Mili-Q water were added to make up concentrations of 1% w/v.
(§8) In addition, gelation time was defined as the time (hours) required for 1% w/v of short peptide 4 to form a hydrogel which can be turned upside down without collapsing.
(§9) Pre-weighed samples of short peptides 10a-17a, 18, and 19 were prepared in glass vials with 10 mm internal diameter, and Milli-Q water was added to make up concentrations of 1% w/v. The resulting suspensions of short peptides 13, 18, and 19 (as ammonium or guanidinium salts) were slowly warmed until all solid had completely dissolved. GdL (1.5 to 2.0 equivalents) was added to the suspension of short peptides 10a-17a, before heat was applied. To create a high ionic strength environment, 1-5 equivalents of NaCl was added to the viscous solution of 10a-17a to make the total volume up to 1 mL, followed by gentle mixing, and the vial was left to stand without disturbance for 3 hours at room temperature. Subsequently, these vials were inverted and allowed to stand overnight to confirm hydrogel formation.

[3] = as above; format: physicochemical; settings: for CGC: triggers GdL; for Remarks (gel state): vial inversion test
From the text: as §3, §4, §5, §6, §7, §8, §9

[4] = Atomic force microscopy (AFM) of fibers; format: physicochemical; settings: for fiber bundle diameter: hydrogel after addition of salt, 4× below CGC; for fiber diameter: hydrogel, 4× below CGC (17 imaged at 0.10% w/v)
Procedure: Hydrogels of NO-releasing short peptide 4 (1 drop), at high pH, low pH, and after irradiation, were cast onto a mica substrate. Hydrogels of cationic short peptides 11-13 and 15-19 were prepared at their CGC, 2× below, and 4× below CGC in glass vials. Prior to gelation, one drop of the cationic short peptide solutions was cast onto a mica substrate. Using a glass slide, each droplet was carefully spread and was left to dry overnight before imaging. Imaging was performed using a Bruker Multimode 8 Atomic Force Microscope in Scanasyst Air (PeakForce Tappings) mode, which is based on tapping mode AFM. To prevent damage of soft samples, the imaging parameters were constantly optimized through the force curves that were collected. Bruker Scanasyst-Air probes were used, with a spring constant of 0.4-0.8 N·m^−1 and a tip radius of 2 nm.
To gain some insight on the mechanism of antibacterial action, the released solutions from hydrogel made of primary ammonium 11 were directly cast onto a mica substrate. […] After gently spreading using a glass slide and left to dry overnight, these samples were imaged using a similar manner as describe above.

[5] = Strain sweep test (SST), linear viscoelastic region; format: physicochemical; settings: hydrogels at 1% w/v, SST at 1 Hz, 0.1% to 100% strain
Procedure: as §1, §2
To observe the structural decay in anthranilamide-based cationic hydrogels, the SST was performed by imposing a non-linear strain. SST provides information about the viscoelastic properties of a hydrogel through determination of its linear viscoelastic region (LVER). […] Here, the LVER reported for each hydrogel represents the deviation of storage modulus (G′) from linearity, known as yield point (γy). Yield points have been reported to reflect a point where the rigidity of a hydrogel starts to weaken.

[6] = Hydrogel formation, vial inversion test (critical gel concentration); format: physicochemical; design: key: VS: viscous solution; CG: clear gel; settings: vial inversion test
From the text: as §3, §4, §5, §6, §7, §8, §9

[7] = as above; format: physicochemical; design: key: CG: clear gel; PG: partial gel; OG: opagque gel; settings: cationic peptides 15-19
From the text: as §3, §4, §5
as §6, with “formation. […]” for “formation.”

[8] = cationic peptides 10-14, heat and NaCl (13: heat and NaCl)
[9] = hydrogels of cationic peptides 10-14
[10] = hydrogels of cationic peptides 15-19
[11] = cationic peptides 15-19, heat and NaCl (18, 19: heat and NaCl)

| G′/G″ ratio ([1]; hydrogels 11-13 at 1% w/v) | G′ (modulus storage) ([1]; hydrogels 11-13 at 1% w/v) | G″ (modulus loss) ([1]; hydrogels 11-13 at 1% w/v) | Remarks (gel state) [2] | CGC [3, 8] | pH [3, 9] | fiber bundle diameter [4] | LVER (linear viscoelastic region) [5] | G′/G″ ratio ([1]; hydrogels 15-19 at 1% w/v) | G′ (modulus storage) ([1]; hydrogels 15-19 at 1% w/v) | G″ (modulus loss) ([1]; hydrogels 15-19 at 1% w/v) | Remarks (gel state) ([3]; cationic peptides 15-19) | pH [3, 10] | fiber diameter [4] | Remarks (gel state) ([6]; cationic peptides 10-14) | CGC [3, 11] | Remarks (gel state) [7] | Remarks (gel state) ([6]; cationic peptides 15-19) | Remarks (gel state) ([3]; cationic peptides 10-14) | Compound | bacterial reduction (S. aureus 38) |
| --- | --- | --- | --- | --- | --- | --- | --- | --- | --- | --- | --- | --- | --- | --- | --- | --- | --- | --- | --- | --- |
| 10.9 | 2.28 kPa | 0.21 kPa | OG | 0.2 % w/v | 6 | 148±16 nm | 1.10 ± 0.04% |  |  |  |  |  |  |  |  |  |  |  | C[N+](C)(C)CCCNC(=O)[C@H](Cc1ccccc1)NC(=O)c1ccccc1NC(=O)c1ccc2ccccc2c1.[I-] [Compound 13, (S)-3-(2-(2-(2-naphthamido)benzamido)-3-phenylpropanamido)-N,N,N-trimethylpropan-1-aminium iodide] | 4.1 Log10 |
|  |  |  |  |  |  |  | 0.16% and 0.16 ± 0.01% | 4.0 | 0.08 kPa | 0.02 kPa | OG → PG | 5.5 | 101±6 nm |  |  |  |  |  | CN(C)CCCNC(=O)[C@H](Cc1ccccc1)NC(=O)c1ccc(Br)cc1NC(=O)c1ccc2ccccc2c1 [Compound 17] |  |
| 15.7 | 8.63 kPa | 0.55 kPa |  | 0.3 % w/v | 5.5 | 139±10 nm | 0.98 ± 0.02% |  |  |  |  |  |  | CG |  |  |  |  | CN(C)CCCNC(=O)[C@H](Cc1ccccc1)NC(=O)c1ccccc1NC(=O)c1ccc2ccccc2c1 [Compound 12] | 5.1 Log10 |
|  |  |  |  |  |  | 115±10 nm | 2.01% and 2.01 ± 0.06% | 20 | 1.20 kPa | 0.06 kPa |  | 5.5 |  |  | 0. % W/V | OG |  |  | CN(C)CCCNC(=O)[C@H](Cc1ccccc1)NC(=O)c1ccc(F)cc1NC(=O)c1ccc2ccccc2c1 [Compound 15] | 3.1 Log10 |
|  |  |  |  |  |  |  | 1.00 ± 0.01% | 10.1 | 1.61 kPa | 0.16 kPa |  | 5 | 87±6 nm |  | 0.3 % W/V |  | CG |  | CN(C)CCCNC(=O)[C@H](Cc1ccccc1)NC(=O)c1ccccc1NC(=O)c1ccc2ccccc2c1.Cl [Compound 19, (S)-3-(2-(2-(2-naphthamido)benzamido)-3-phenylpropanamido)-N,N-dimethylpropan-1-aminium Chloride] | 3.0 Log10 |
|  |  |  |  |  | 6 |  |  |  |  |  |  |  |  |  |  |  |  |  | N=C(N)NCCCNC(=O)[C@H](Cc1ccccc1)NC(=O)c1ccccc1NC(=O)c1ccc2ccccc2c1 [Compound 14] |  |
|  |  |  |  |  |  | 99±6 nm | 1.66% and 1.66 ± 0.10% | 10.6 | 0.53 kPa | 0.05 kPa |  | 5.5 |  |  | 0.2 % W/V | OG |  |  | CN(C)CCCNC(=O)[C@H](Cc1ccccc1)NC(=O)c1ccc(Cl)cc1NC(=O)c1ccc2ccccc2c1 [Compound 16] | 5.0 Log10 |
|  |  |  |  |  |  |  | 0.98 ± 0.02% | 16.5 | 5.12 kPa | 0.31 kPa |  | 4 | 104±4 nm |  | 0.3 % W/V |  | CG |  | CN(C)CCCNC(=O)[C@H](Cc1ccccc1)NC(=O)c1ccccc1NC(=O)c1ccc2ccccc2c1 [Compound 18, (S)-3-(2-(2-(2-naphthamido)benzamido)-3-phenylpropanamido)-N,N-dimethylpropan-1-aminium Ttrifluoroacetate] | 4.9 Log10 |
|  |  |  |  |  | 5.5 |  |  |  |  |  |  |  |  |  |  |  |  | CG → PG | NCCNC(=O)[C@H](Cc1ccccc1)NC(=O)c1ccccc1NC(=O)c1ccc2ccccc2c1 [Compound 10] |  |
